According to US8741659B2, “Composition for measuring the binding affinity between nucleic acid and test substance, and use thereof” (Osaka University, priority 2007, dated 2014):

Key:
[1] = system: RRE; assay: Displacement assay using X2S; format: binding, HIV-1
Description: In this Example, X2S was used to measure a binding affinity between a test substance and RRE. As the test substance, Rev protein (supplied by Professor Takashi MORII, Graduates School of Energy Science, Kyoto University), aminoglycoside antibiotic neomycin (available from Sigma-Aldrich, product number; N-1876) (hereinafter, simply referred to as “neomycin”), and thrombin (available from Bachem, product number; AG H-8550) were used. […] The structure of Rev protein is shown in FIG. 9, and the amino acid sequence of Rev protein is shown in SEQ ID NO: 5. FIG. 9 is a view schematically illustrating the structure of Rev protein. Further, the structure of thrombin is shown in FIG. 10, and the amino acid sequence of thrombin is shown in SEQ ID NO: 6. FIG. 10 is a view schematically illustrating the structure of thrombin.
Firstly, in the same manner as in Example 3, X2S and RRE were dissolved in a cacodylate buffer solution (sodium cacodylate: 10 mM, pH 7.0; NaCl: 100 mM) each at 2 μM. Thus, an X2S-RRE solution was prepared.
To the X2S-RRE solution, Rev protein was added in steps at 0 μM, 0.4 μM, 0.8 μM, 1.2 μM, 1.6 μM, 2.0 μM, 2.4 μM, 2.8 μM, 3.2 μM, 3.6 μM, and 4.0 μM. Further, a fluorescence intensity was measured at each concentration. Similarly, to the X2S-RRE solution, neomycin was added in steps at 0 μM, 0.4 μM, 0.8 μM, 1.2 μM, 1.6 μM, 2.0 μM, 2.4 μM, 2.8 μM, 3.2 μM, 3.6 μM, and 4.0 μM. Further, a fluorescence intensity was measured at each concentration. Similarly, to the X2S-RRE solution, thrombin was added in steps at 0 μM, 0.4 μM, 0.8 μM, 1.2 μM, 1.6 μM, 2.0 μM, 2.4 μM, 2.8 μM, 3.2 μM, 3.6 μM, and 4.0 μM. Further, a fluorescence intensity was measured at each concentration. The fluorescence intensities were measured in the same manner as that described in Example 2.
FIG. 11 is a view illustrating a result of the measurement of a binding affinity between Rev protein and RRE; FIG. 12 is a view illustrating a result of the measurement of a binding affinity between neomycin and RRE; and FIG. 13 is a view illustrating a result of the measurement of a binding affinity between thrombin and RRE. In each of FIGS. 11 to 13, the horizontal axis represents the fluorescence wavelength, whereas the vertical axis represents the fluorescence intensity. […] Furthermore, along the direction of the arrow extending from the curved line at the bottom, the curved lines are arranged in order of increasing amount of the test substance which was added.
FIG. 14 is a view plotting the fluorescence intensities at a fluorescence wavelength of 453 nm shown in the results illustrated in FIGS. 11 to 13. The horizontal axis represents the concentration of each test substance, whereas the vertical axis represents the fluorescence intensity. In FIG. 14, the circle marks represent the result obtained in the case involving use of Rev protein, the square marks represent the result obtained in the case involving use of neomycin, and the triangle marks represent the result obtained in the case involving use of thrombin.
A displacement assay using X2S was performed in the same manner as that described in Example 5, except that, in this Example, fluorescence was measured also when Rev protein was added at concentrations of 4.4 μM and 4.8 μM.
FIG. 16 is a view illustrating the result of the displacement assay using X2S. The horizontal axis represents the fluorescence wavelength, whereas the vertical axis represents the fluorescence intensity.

[2] = system: single strand RNA (ssRNA), SEQ ID NO: 7; assay: Binding between X2S and single strand RNA
Procedure: In this Example, binding between X2S and a single strand RNA (hereinafter, referred to as “ssRNA”) was evaluated. Specifically, the evaluation was performed in the same manner as that described in Example 2. However, the evaluation performed in this Example differed from that performed in Example 2 in the following points: Instead of the double strand RNA, an ssRNA was used; The ssRNA was added in steps at 0 μM, 1 μM, 2 μM, 3 μM, 4 μM, 5 μM, 6 μM, 7 μM, and 8 μM; The ssRNA was purchased from: Hokkaido System Science Co., Ltd. The sequence of the ssRNA is shown in SEQ ID NO: 7.
FIG. 18 is a view illustrating the result of the evaluation of binding between X2S and the ssRNA. The horizontal axis represents the fluorescence wavelength, whereas the vertical axis represents the fluorescence intensity.

SMILES: NCCOc1ccc2oc3ccc(OCCN)cc3c(=O)c2c1 [X2S, 2,7-bis(2-aminoethoxy)xanthen-9-one]
- change in the fluorescence intensity, X2S compared with ethidium bromide ([1]; FIG. 11 compared with FIG. 15): greater in the case involving use of X2S than in the case involving use of ethidium bromide
- concentration at which a change in fluorescence intensity was still clearly observed ([1]; Rev protein up to 4.8 μM): 3.2 µM
- ultimate increase of fluorescence intensity ([1]; Rev protein up to 4.8 μM): approximately 80%
- amount of change of fluorescence intensity ([2]; 0 μM versus 8 μM ssRNA): approximately 50%
- binding to ssRNA ([2]; ssRNA 0-8 μM): binds to an ssRNA
